Test results taken from patent publication US12612412B2, “Antiviral heterocyclic compounds” (Enanta Pharmaceuticals, Inc., priority 2021, dated 2026).
pEC50: −log10 of the molar value.

What was measured:
[1] = test system: genotype A, "Long" strain RSV; assay: RSV-A assay (CPE protection in Hep-2 cells, ATPlite readout); format: cell-based, Human respiratory syncytial virus (HRSV); conditions: human respiratory syncytial virus, RSV-A Long strain, MOI 0.1, CPE protection, read-out: Human RSV-A (“Long”) EC50
Outline: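 Hep-2 cells (8,000/well) infected with RSV Long strain at MOI 0.1 in the presence of 2-fold compound dilutions in duplicate. After 5 days, cell viability measured by ATPlite luminescence, normalized between virus-only and uninfected cell controls; EC50 reported.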

[2] = test system: HMPV clinical isolate TN/1501/A1; assay: HMPV antiviral assay Method-B (clinical isolate TN/1501/A1 in LLC-MK2 cells, ATP-Lite readout); format: cell-based, Human metapneumovirus (HMPV); conditions: human metapneumovirus, LLC-MK2, 144 h, hMPV WT1501 (clinical isolate TN/1501/A1), 6 days
Outline: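 EC50 derived by four-parameter logistic fit of percent cell health, measured by ATP-Lite luminescence and normalised to virus-only and uninfected-cell controls. Compounds run in duplicate from 10 μM top, 3-fold, 10 points. Infection: LLC-MK2 cells, MOI 0.014, 2 μg/mL final TPCK-trypsin, serum-free, 6 days at 37° C.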

In the case of `COc1cc(C(=O)NC[C@](O)(c2cc3c(c(-c4cc(F)c(F)cc4F)n2)OC[C@]3(C)C(N)=O)C(F)(F)F)cc2cn(C(F)F)nc12` [Example 1136], the pEC50 [1] was > 6.70 and the pEC50 [2] was > 6.30.

In the case of `C[C@]1(C(N)=O)COc2c1cc([C@@](O)(CNC(=O)c1ccc3nn(C4CC4)cc3c1)C(F)(F)F)nc2-c1cc(F)c(F)cc1F` [Example 1139], the pEC50 [1] was > 6.70 and the pEC50 [2] was > 6.30.

In the case of `COc1cc(C(=O)NC[C@](O)(c2cc3c(c(-c4cc(F)c(F)cc4F)n2)OC[C@]3(C)C(N)=O)C(F)(F)F)cc2cc(Cl)c(C)nc12` [Example 1140], the pEC50 [1] was > 6.70 and the pEC50 [2] was > 6.30.

With `Cc1cnc2c(Cl)cc(C(=O)NC[C@](O)(c3cc4c(c(-c5cc(F)c(F)cc5F)n3)OC[C@]4(C)C(N)=O)C(F)(F)F)cc2c1` [Example 1141] the pEC50 [1] was > 6.70 and the pEC50 [2] was > 6.30.

For `Cc1cnc2c(OC(F)F)cc(C(=O)NC[C@](O)(c3cc4c(c(-c5cc(F)c(F)cc5F)n3)OC[C@]4(C)C(N)=O)C(F)(F)F)cc2c1` [Example 1142], the pEC50 [1] was > 6.70 and the pEC50 [2] was > 6.30.

For `COc1ncc2cc(C(=O)NC[C@](O)(c3cc4c(c(-c5ccc(F)cc5)n3)OC[C@]4(C)C(N)=O)C(F)(F)F)cc(OC)c2n1` [Example 1143], the pEC50 [1] was > 6.70 and the pEC50 [2] was < 6.30.

For `COc1ncc2cc(C(=O)NC[C@](O)(c3cc4c(c(-c5ccc(F)cc5)n3)OC[C@]4(C)C(N)=O)C3CC3)cc(OC)c2n1` [Example 1144], the pEC50 [1] was > 6.70 and the pEC50 [2] was < 6.30.

For `COc1cc(C(=O)NC[C@](O)(c2cc3c(c(-c4cc(F)c(F)cc4F)n2)OC[C@]3(C)C(N)=O)C2CC2)cc2cn(C3CC3)nc12` [Example 1145], the pEC50 [1] was > 6.70 and the pEC50 [2] was > 6.30.

For `COc1cc(C(=O)NC[C@](O)(c2cc3c(c(-c4cc(F)c(F)cc4F)n2)OC[C@]3(C)C(N)=O)C2CC2)cc2cn(C(F)F)nc12` [Example 1146], the pEC50 [1] was > 6.70 and the pEC50 [2] was > 6.30.

For `COc1cc(C(=O)NC[C@](O)(c2cc3c(c(-c4cc(F)c(F)cc4F)n2)OC[C@]3(C)C(N)=O)C2CC2)cc2cn(C3(F)CC3)nc12` [Example 1147], the pEC50 [1] was > 6.70 and the pEC50 [2] was > 6.30.

In the case of `C[C@]1(C(N)=O)COc2c1cc([C@@](O)(CNC(=O)c1cc(Cl)c3nn(C4CC4)cc3c1)C1CC1)nc2-c1cc(F)c(F)cc1F` [Example 1148], the pEC50 [1] was > 6.70 and the pEC50 [2] was > 6.30.

For `COc1cc(C(=O)NC[C@](O)(c2cc3c(c(-c4cc(F)c(F)cc4F)n2)OC[C@]3(C)C(N)=O)C2CC2)cc2cc(Br)cnc12` [Example 1149], the pEC50 [1] was > 6.70 and the pEC50 [2] was > 6.30.

With `COc1cc(C(=O)NC[C@](O)(c2cc3c(c(-c4cc(F)c(F)cc4F)n2)OC[C@]3(C)C(N)=O)C2CC2)cc2cc(Br)c(C)nc12` [Example 1150] the pEC50 [1] was > 6.70 and the pEC50 [2] was > 6.30.

For `COc1cc(C(=O)NC[C@](O)(c2cc3c(c(-c4cc(F)c(F)cc4F)n2)OC[C@]3(C)C(N)=O)C2CC2)cc2cc(Cl)c(C)nc12` [Example 1151], the pEC50 [1] was > 6.70 and the pEC50 [2] was > 6.30.

With `Cc1cnc2c(Cl)cc(C(=O)NC[C@](O)(c3cc4c(c(-c5cc(F)c(F)cc5F)n3)OC[C@]4(C)C(N)=O)C3CC3)cc2c1` [Example 1153] the pEC50 [1] was > 6.70 and the pEC50 [2] was > 6.30.

`COc1cc(C(=O)NC[C@](O)(c2cc3c(c(-c4cc(Cl)c(F)cc4F)n2)OC[C@]3(C)C(N)=O)C2CC2)cc2cc(Br)c(C)nc12` [Example 1154] was tested, and the pEC50 [1] was > 6.70 and the pEC50 [2] was > 6.30.

For `COc1cc(C(=O)NC[C@](O)(c2cc3c(c(-c4c(F)cc(Cl)cc4F)n2)OC[C@]3(C)C(N)=O)C2CC2)cc2cn(C3CC3)nc12` [Example 1155], the pEC50 [1] was > 6.70 and the pEC50 [2] was > 6.30.

`COc1cc(C(=O)NC[C@](O)(c2cc3c(c(-c4c(F)cc(Cl)cc4F)n2)OC[C@]3(C)C(N)=O)C2CC2)cc2cn(C(F)F)nc12` [Example 1156] was tested, and the pEC50 [1] was > 6.70 and the pEC50 [2] was > 6.30.

For `COc1cc(C(=O)NC[C@](O)(c2cc3c(c(-c4c(F)cc(Cl)cc4F)n2)OC[C@]3(C)C(N)=O)C2CC2)cc2cn(C3(F)CC3)nc12` [Example 1157], the pEC50 [1] was > 6.70 and the pEC50 [2] was > 6.30.

In the case of `C[C@]1(C(N)=O)COc2c1cc([C@@](O)(CNC(=O)c1cc(Cl)c3nn(C4CC4)cc3c1)C1CC1)nc2-c1c(F)cc(Cl)cc1F` [Example 1158], the pEC50 [1] was > 6.70 and the pEC50 [2] was > 6.30.

For `COc1cc(C(=O)NC[C@](O)(c2cc3c(c(-c4c(F)cc(Cl)cc4F)n2)OC[C@]3(C)C(N)=O)C2CC2)cc2cc(Cl)c(C)nc12` [Example 1159], the pEC50 [1] was > 6.70 and the pEC50 [2] was > 6.30.

With `COc1cc(C(=O)NC[C@](O)(c2nc(-c3ccc(F)c(Cl)c3F)c3c(c2F)[C@@](C)(C(N)=O)CO3)C2CC2)cc2cn(C3CC3)nc12` [Example 1160] the pEC50 [1] was > 6.70 and the pEC50 [2] was > 6.30.

`COc1cc(C(=O)NC[C@](O)(c2nc(-c3ccc(F)c(Cl)c3F)c3c(c2F)[C@@](C)(C(N)=O)CO3)C2CC2)cc2cn(C(F)F)nc12` [Example 1161] was tested, and the pEC50 [1] was > 6.70 and the pEC50 [2] was > 6.30.

`COc1cc(C(=O)NC[C@](O)(c2nc(-c3cc(Cl)c(F)cc3F)c3c(c2F)[C@@](C)(C(N)=O)CO3)C2CC2)cc2cn(C(F)F)nc12` [Example 1162] was tested, and the pEC50 [1] was > 6.70 and the pEC50 [2] was > 6.30.

`COc1cc(C(=O)NC[C@](O)(c2cc3c(c(-c4c(F)ccc(Cl)c4F)n2)OC[C@]3(C)C(N)=O)C2CC2)cc2cn(C3CC3)nc12` [Example 1163] was tested, and the pEC50 [1] was > 6.70 and the pEC50 [2] was > 6.30.

With `COc1cc(C(=O)NC[C@](O)(c2cc3c(c(-c4c(F)ccc(Cl)c4F)n2)OC[C@]3(C)C(N)=O)C2CC2)cc2cn(C(F)F)nc12` [Example 1164] the pEC50 [1] was > 6.70 and the pEC50 [2] was > 6.30.

For `COc1cc(C(=O)NC[C@](O)(c2cc3c(c(-c4c(F)ccc(Cl)c4F)n2)OC[C@]3(C)C(N)=O)C2CC2)cc2cn(C3(F)CC3)nc12` [Example 1165], the pEC50 [1] was > 6.70 and the pEC50 [2] was > 6.30.

For `C[C@]1(C(N)=O)COc2c1cc([C@@](O)(CNC(=O)c1cc(Cl)c3nn(C4CC4)cc3c1)C1CC1)nc2-c1c(F)ccc(Cl)c1F` [Example 1166], the pEC50 [1] was > 6.70 and the pEC50 [2] was > 6.30.

For `C[C@]1(C(N)=O)COc2c1cc([C@@](O)(CNC(=O)c1ccc3nn(C4CC4)cc3c1)C1CC1)nc2-c1c(F)ccc(Cl)c1F` [Example 1167], the pEC50 [1] was > 6.70 and the pEC50 [2] was > 6.30.

`COc1cc(C(=O)NC[C@](O)(c2cc3c(c(-c4c(F)ccc(Cl)c4F)n2)OC[C@]3(C)C(N)=O)C2CC2)cc2cc(Cl)c(C)nc12` [Example 1168] was tested, and the pEC50 [1] was > 6.70 and the pEC50 [2] was > 6.30.

In the case of `COc1cc(C(=O)NC[C@](O)(c2cc3c(c(-c4c(F)ccc(Cl)c4F)n2)OC[C@]3(C)C(N)=O)C2CC2)cc2cc(Br)c(C)nc12` [Example 1169], the pEC50 [1] was > 6.70 and the pEC50 [2] was > 6.30.

With `COc1cc(C(=O)NC[C@](O)(c2cc3c(c(-c4ccc(F)cc4)n2)OC[C@]3(C)C(=O)NCC(C)(C)O)C(F)(F)F)cc2cn(C3CC3)nc12` [Example 1170] the pEC50 [1] was > 6.70 and the pEC50 [2] was < 6.30.

`COc1cc(C(=O)NC[C@](O)(c2cc3c(c(-c4cc(F)c(Cl)cc4F)n2)OC[C@]3(C)C(N)=O)C2CC2)cc2cn(C3CC3)nc12` [Example 1177] was tested, and the pEC50 [1] was > 6.70 and the pEC50 [2] was > 6.30.

With `COc1cc(C(=O)NC[C@](O)(c2cc3c(c(-c4cc(F)c(Cl)cc4F)n2)OC[C@]3(C)C(N)=O)C2CC2)cc2cn(C(F)F)nc12` [Example 1178] the pEC50 [1] was > 6.70 and the pEC50 [2] was > 6.30.

With `C[C@]1(C(N)=O)COc2c1cc([C@@](O)(CNC(=O)c1cc(Cl)c3nn(C4CC4)cc3c1)C1CC1)nc2-c1cc(F)c(Cl)cc1F` [Example 1179] the pEC50 [1] was > 6.70 and the pEC50 [2] was > 6.30.

`COc1cc(C(=O)NC[C@](O)(c2cc3c(c(-c4cc(F)c(Cl)cc4F)n2)OC[C@]3(C)C(N)=O)C2CC2)cc2cn(C3(F)CC3)nc12` [Example 1180] was tested, and the pEC50 [1] was > 6.70 and the pEC50 [2] was > 6.30.

For `Cc1cnc2c(Cl)cc(C(=O)NC[C@](O)(c3cc4c(c(-c5cc(F)c(Cl)cc5F)n3)OC[C@]4(C)C(N)=O)C3CC3)cc2c1` [Example 1181], the pEC50 [1] was > 6.70 and the pEC50 [2] was > 6.30.

In the case of `COc1cc(C(=O)NC[C@](O)(c2cc3c(c(-c4cc(F)c(Cl)cc4F)n2)OC[C@]3(C)C(N)=O)C2CC2)cc2cc(Cl)c(C)nc12` [Example 1182], the pEC50 [1] was > 6.70 and the pEC50 [2] was > 6.30.

With `Cc1cnc2c(OC(F)F)cc(C(=O)NC[C@](O)(c3cc4c(c(-c5cc(F)c(Cl)cc5F)n3)OC[C@]4(C)C(N)=O)C3CC3)cc2c1` [Example 1183] the pEC50 [1] was > 6.70 and the pEC50 [2] was > 6.30.

With `COc1cc(C(=O)NC[C@](O)(c2cc3c(c(-c4ccc(F)c(F)c4Cl)n2)OC[C@]3(C)C(N)=O)C2CC2)cc2cc(Br)c(C)nc12` [Example 1184] the pEC50 [1] was > 6.70 and the pEC50 [2] was > 6.30.

For `COc1cc(C(=O)NC[C@](O)(c2cc3c(c(-c4ccc(F)c(Cl)c4F)n2)OC[C@]3(C)C(N)=O)C2CC2)cc2cc(Br)c(Cl)nc12` [Example 1185], the pEC50 [1] was > 6.70 and the pEC50 [2] was > 6.30.

For `Cc1nc2c(Cl)cc(C(=O)NC[C@](O)(c3cc4c(c(-c5ccc(F)c(F)c5Cl)n3)OC[C@]4(C)C(N)=O)C3CC3)cc2cc1Cl` [Example 1186], the pEC50 [1] was > 6.70 and the pEC50 [2] was > 6.30.

In the case of `Cc1cnc2c(Cl)cc(C(=O)NC[C@](O)(c3cc4c(c(-c5ccc(F)c(F)c5Cl)n3)OC[C@]4(C)C(N)=O)C3CC3)cc2c1` [Example 1187], the pEC50 [1] was > 6.70 and the pEC50 [2] was > 6.30.

In the case of `COc1cc(C(=O)NC[C@](O)(c2cc3c(c(-c4cc(Cl)ccc4F)n2)OC[C@]3(C)C(N)=O)C2CC2)cc2cn(C(F)F)nc12` [Example 1188], the pEC50 [1] was > 6.70 and the pEC50 [2] was > 6.30.

In the case of `COc1cc(C(=O)NC[C@](O)(c2cc3c(c(-c4cc(Cl)ccc4F)n2)OC[C@]3(C)C(N)=O)C2CC2)cc2cc(Br)c(C)nc12` [Example 1189], the pEC50 [1] was > 6.70 and the pEC50 [2] was > 6.30.
